Data set [1] deals with CArah1-1 (DNA, aptamer, circular (5' and 3' ends ligated)) ATCCGATCGAGAGGATCCGGAAACATGCGAATTAATGAGGCCCCAAGATAGCTAAGAGAT
Put plainly: MMC-GO-based binding assay, SYBR Gold fluorescence. The following applies: 1x binding buffer (composition not stated); specificity test, concentration not given.

The target of data set [2] is T1, Ara h1 (peanut allergen) (peanut, UniProt P43238 85-626).
T1 sequence: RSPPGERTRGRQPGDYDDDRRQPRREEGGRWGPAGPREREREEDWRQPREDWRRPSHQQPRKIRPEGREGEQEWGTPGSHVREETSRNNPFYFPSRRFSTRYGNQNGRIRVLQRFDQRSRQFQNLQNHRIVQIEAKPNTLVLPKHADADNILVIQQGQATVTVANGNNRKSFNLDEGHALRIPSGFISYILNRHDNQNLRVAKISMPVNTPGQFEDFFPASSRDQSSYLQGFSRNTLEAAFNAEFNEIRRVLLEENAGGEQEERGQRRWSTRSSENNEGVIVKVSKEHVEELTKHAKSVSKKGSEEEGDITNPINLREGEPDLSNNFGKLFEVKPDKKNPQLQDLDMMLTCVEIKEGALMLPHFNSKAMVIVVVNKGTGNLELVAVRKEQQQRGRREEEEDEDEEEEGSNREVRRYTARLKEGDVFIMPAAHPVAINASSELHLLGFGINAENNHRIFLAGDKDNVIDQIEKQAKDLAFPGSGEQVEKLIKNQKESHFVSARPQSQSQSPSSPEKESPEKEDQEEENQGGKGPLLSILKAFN
In words: MMC-GO-based fluorescence binding assay; Kd only in figure; 1x binding buffer (composition not in material); aptamer heated 95 C 5 min, ice 15 min, incubated 60 min with target, then MMC-GO 20 min; MST at 25 C. The following applies: protein: native; tags: RED-NHS dye label in MST; label: SYBR Gold staining; circular ssDNA.

Data set [3] addresses T1, Ara h1 (peanut allergen). In words: MST; labeled Ara h1 fixed, aptamer titrated, 25 C; 1x binding buffer (composition not in material); aptamer heated 95 C 5 min, ice 15 min, incubated 60 min with target, then MMC-GO 20 min; MST at 25 C. The conditions noted are these: protein: native; tags: RED-NHS dye label in MST; label: SYBR Gold staining in MMC-GO assay; circular ssDNA.

Data set [4] concerns the target T1, Ara h1 (peanut allergen). Put plainly: MMC-GO-based fluorescence binding assay; 1x binding buffer (composition not in material); aptamer heated 95 C 5 min, ice 15 min, incubated 60 min with target, then MMC-GO 20 min; MST at 25 C. The following applies: protein: native; tags: RED-NHS dye label in MST; label: SYBR Gold staining in MMC-GO assay; circular ssDNA.

This is an account of results in article PMC11062507.

In general, Kd refers to the free concentration of one partner at which half of the binding sites on the other are occupied at equilibrium, for simple one-to-one binding. Higher therefore signals a looser complex.

With `Cc1cc2nc3c(=O)[nH]c(=O)nc-3n(C[C@H](O)[C@H](O)[C@H](O)CO)c2cc1C`, the binding entry in data set [1] is “no”. Same read-out and setting: the result for `N[C@@H](Cc1c[nH]c2ccccc12)C(=O)O` reads “no”. Still for that read-out and setting: under `N[C@@H](Cc1ccccc1)C(=O)O` stands “no”; under `Nc1ncnc2c1ncn2[C@@H]1O[C@H](COP(=O)(O)OP(=O)(O)OP(=O)(O)O)[C@@H](O)[C@H]1O`, “no”. On the same count and under the same terms, the result for `O=C1O[C@H]([C@@H](O)CO)C(O)=C1O` reads “no”; that for `OC[C@H]1OC(O)[C@H](O)[C@@H](O)[C@@H]1O` (stereo partly shown), “no”.

B1: CArah1-4 (structured_DNA)
DNA: ATCCGATCGATCAACAAACTTCGTGGCTCACCCAGACATTCACTCATGCGGCTAAGAGAT
modifications: circular (5' and 3' ends ligated)
For B1, the binding result in the data set with Ara h1 (peanut allergen) [2] was “binds”.

B2: CArah1-1 (structured_DNA)
DNA: ATCCGATCGAGAGGATCCGGAAACATGCGAATTAATGAGGCCCCAAGATAGCTAAGAGAT
modifications: circular (5' and 3' ends ligated)
In the case of B2, the figures for the Kd with Ara h1 (peanut allergen) [3] and with Ara h1 (peanut allergen) [4] were 201 nM and 981 nM, respectively.

B3: CArah1-3 (structured_DNA)
DNA: ATCCGATCGATTCTACGGTTTTTCGCTAACGTTCACTGCACTGTATCTGGGCTAAGAGAT
modifications: circular (5' and 3' ends ligated)
With B3, in the data set with Ara h1 (peanut allergen) [2], the binding result was “binds”.
